Reference: patent publication US20250163029A1, “PYRIDONE OR PYRIMIDONE DERIVATIVE AND APPLICATION THEREOF” (Medshine Discovery Inc., priority 2022, published 2025)
Counter-ions that a name gives are not always drawn.

Columns and labels:
[1] = tested on: plasma protein; experiment: Plasma protein binding rate (PPB), beagle dogs; type: in vitro ADME; details: 2 μM, 4 hours dialysis
Experimental: (§1) 597 μL of blank plasma from CD-1 mice, SD rats, beagle dogs, cynomolgus monkeys and humans were weighed, and the working solution of the assay compound or the working solution of warfarin was added, so that the final concentration of the assay compound and warfarin in the plasma sample was 2 μM. The samples were mixed thoroughly. The final concentration of DMSO as an organic phase was 0.5%; 50 μL of the assay compound and warfarin plasma samples were pipetted into a sample receiving plate, and the corresponding volume of blank plasma or buffer was immediately added, so that the final volume of each sample well was 100 μL, and the volume ratio of plasma:dialysis buffer was 1:1, and then the stop solution was added to these samples. The samples were used as the To sample for recovery and stability determination. The assay compound and warfarin plasma samples were added to the dosing end of each dialysis well, and blank dialysis buffer was added to the receiving end corresponding to the dialysis well. Then the dialysis plate was sealed with a gas permeable membrane and placed in a humidified 5% CO2 incubator, and incubated with shaking at 37° C. and 100 rpm for 4 hours. […] After protein precipitation, all samples were analyzed by LC/MS/MS, and the free rate (% Unbound) of the compound was calculated by the following formula: […]

[2] = in vivo; design: species or system beagle dogs; details: beagle, dog
Experimental: Objective of assay: The druggability of compounds was evaluated by measuring their pharmacokinetic properties in different animal species.
Assay Materials: C57BL6/J strain mice, Sprague-Dawley strain rats and beagle dogs.
The pharmacokinetic characteristics of the compound after intravenous and oral administration were assayed in animals using a standard protocol. In the assay, the candidate compound was prepared into a clear solution (intravenous injection) or a homogeneous suspension (oral administration) and administrated to the animal once. Whole blood samples were collected within 24 hours, and centrifuged at 3200 g for 10 minutes. The supernatant was separated to obtain a plasma sample. The blood concentration was quantitatively analyzed by LC-MS/MS analysis method, and pharmacokinetic parameters such as peak concentration, time to peak, clearance rate, half-life, and area under the drug-time curve were calculated.

[3] = tested on: novel coronavirus βCoV/KOR/KCDC03/2020 strain; experiment: In vitro anti-novel coronavirus activity in Vero cells; type: cell-based, SARS-CoV-2; details: Severe acute respiratory syndrome coronavirus 2, Vero, 24 h
[4] = tested on: plasma protein; experiment: Plasma protein binding rate (PPB), CD-1 mice; type: in vitro ADME; details: 2 μM, 4 hours dialysis
Experimental: as §1

Cn1cnc(Cc2cn(Cc3cc(F)c(F)cc3F)c(Nc3cc4cn(C)nc4cc3Cl)nc2=O)n1 [Compound 4 hydrochloride]
PPB_Unbound (%) [1]: 23.9% | Vd ([2]; iv, 0.1 mg/kg): 2.5 L/kg | clearance ([2]; iv, 0.1 mg/kg): 0.432 L/h/kg | half-life ([2]; iv, 0.1 mg/kg): 6.2 h | AUC ([2]; iv, 0.1 mg/kg, AUC): 504 nM·h | AUC ([2]; iv, 0.1 mg/kg, AUCfree): 120 nM·h | Cmax ([2]; po, 0.5 mg/kg): 0.27 µM | Tmax ([2]; po, 0.5 mg/kg): 3 h | bioavailability ([2]; po, 0.5 mg/kg): 121% | half-life ([2]; po, 0.5 mg/kg): 9.5 h | AUC ([2]; po, 0.5 mg/kg, AUC): 3100 nM·h | AUC ([2]; po, 0.5 mg/kg, AUCfree): 740 nM·h | EC50 [3]: 0.052 µM | PPB_Unbound (%) [4]: 2.8%
